Here are results for 15 molecules from publication PMC3224040 (ACS medicinal chemistry letters, 2011).

For data set [1] the following is noted: cited from earlier work.
Data set [2] is described as follows: Aqueous solubility. Type of data set: physicochemical. The following applies: aqueous medium (not further specified).
Data set [3] deals with dopamine D3 receptor (Rattus norvegicus, UniProt P19020). The data set is described as follows: Yawning assay in rats. The following applies: for High doses at which D2 agonist effects may be observed: antagonist interaction study in yawning assay.
Sequence of dopamine D3 receptor (P19020 whole entry): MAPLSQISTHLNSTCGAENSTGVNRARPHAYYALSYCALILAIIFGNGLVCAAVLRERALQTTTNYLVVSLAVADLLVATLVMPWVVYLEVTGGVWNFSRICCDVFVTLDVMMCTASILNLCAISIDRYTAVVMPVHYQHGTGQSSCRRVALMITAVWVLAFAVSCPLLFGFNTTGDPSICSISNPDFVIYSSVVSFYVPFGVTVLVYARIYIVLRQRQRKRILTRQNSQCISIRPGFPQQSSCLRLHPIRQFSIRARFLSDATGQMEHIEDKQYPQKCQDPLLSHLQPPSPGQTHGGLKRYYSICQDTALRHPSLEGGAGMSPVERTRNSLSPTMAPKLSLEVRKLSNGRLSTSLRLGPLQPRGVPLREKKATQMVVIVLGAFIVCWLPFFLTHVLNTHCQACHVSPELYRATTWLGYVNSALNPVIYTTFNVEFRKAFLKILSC
Data set [4] concerns D3 receptor. The following applies: cited from earlier work; for Selectivity for D3 over D2: D3 antagonists; for Selectivity over the D2 receptor: D3 agonists, in vitro binding data.
Data set [5] addresses D3 receptor (Rattus norvegicus, UniProt P19020). Conditions: rat brain binding, ratio of Ki values.
In data set [6] the target is D2 receptor (Rattus norvegicus, UniProt P61169). Conditions: for Decrease in core body temperature: pretreatment of L-741,626 at 1 mg/kg; for Dose at onset of modest D2 agonist activity: yawning and hypothermia data.
Sequence of D2 receptor (P61169 whole entry): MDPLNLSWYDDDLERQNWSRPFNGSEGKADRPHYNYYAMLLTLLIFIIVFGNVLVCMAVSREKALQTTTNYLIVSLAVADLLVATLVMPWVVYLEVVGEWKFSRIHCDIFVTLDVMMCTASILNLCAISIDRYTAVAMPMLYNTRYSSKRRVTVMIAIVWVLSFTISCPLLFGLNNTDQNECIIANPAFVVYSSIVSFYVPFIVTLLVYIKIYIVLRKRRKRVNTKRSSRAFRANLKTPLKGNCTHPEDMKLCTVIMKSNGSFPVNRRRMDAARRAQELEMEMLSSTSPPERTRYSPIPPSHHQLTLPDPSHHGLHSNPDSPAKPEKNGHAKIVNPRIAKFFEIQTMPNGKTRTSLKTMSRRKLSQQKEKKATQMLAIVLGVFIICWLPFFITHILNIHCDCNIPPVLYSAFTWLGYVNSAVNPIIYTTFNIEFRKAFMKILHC
The target of data set [7] is human D1 receptor (Homo sapiens, UniProt P21728). Description: Binding to cloned human D1 receptor. Conditions: at 10,000 nM.
Sequence of human D1 receptor (P21728 whole entry): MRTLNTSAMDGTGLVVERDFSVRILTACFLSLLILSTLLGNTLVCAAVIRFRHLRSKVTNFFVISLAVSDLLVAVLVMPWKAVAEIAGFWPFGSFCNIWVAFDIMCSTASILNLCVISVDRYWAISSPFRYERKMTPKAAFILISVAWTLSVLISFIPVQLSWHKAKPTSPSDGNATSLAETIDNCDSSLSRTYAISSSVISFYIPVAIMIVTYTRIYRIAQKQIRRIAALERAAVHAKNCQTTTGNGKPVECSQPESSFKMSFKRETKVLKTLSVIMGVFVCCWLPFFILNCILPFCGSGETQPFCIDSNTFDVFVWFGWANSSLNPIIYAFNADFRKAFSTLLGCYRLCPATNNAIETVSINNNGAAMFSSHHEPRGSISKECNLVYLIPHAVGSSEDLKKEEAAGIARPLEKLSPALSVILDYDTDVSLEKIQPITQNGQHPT

Read-outs that look alike come from different tables or passages of the source.

Sequence of D3 receptor (Rattus norvegicus, UniProt P19020) (P19020 whole entry): as the sequence (P19020 whole entry) above

As to `CCCN(CC[C@H]1CC[C@H](NC(=O)/C=C/c2ccccc2)CC1)[C@H]1CCc2nc(N)sc2C1` [Compound 10], the Aqueous solubility – broadly, the dissolved amount per volume that the medium holds – in data set [1] was above 50 mg/mL.
Take `CCCN(CC[C@]1(O)C[C@@H](NC(=O)c2ccc3ccccc3c2)C1)[C@H]1CCc2nc(N)sc2C1` [Compound 16]: the solubility (as a rule, how much of the substance goes into solution per volume) in data set [2] was above 100 mg/mL. Further, in data set [3], the “Dose producing peak levels of yawning” value was found to be 1.0 mg/kg.
For the molecule `N#Cc1ccc2c(c1)CCN(CCC1CCC(NC(=O)c3ccnc4ccccc34)CC1)C2` (centres unmarked) [Compound 4], the “Selectivity for D3 over D2” value in data set [4] was at most 100 fold.
On to `CCCN1CCC[C@@H]2Cc3n[nH]cc3C[C@H]21` [Compound 2, Quinpirole], for which the “Selectivity over the D2 receptor” value in data set [4] is on record as below 100 fold.
`CCCN(CC[C@H]1C[C@H](NC(=O)c2ccc3ccccc3c2)C1)[C@H]1CCc2nc(N)sc2C1` [Compound 14]: the “Selectivity D1-like/D3” value in data set [5] is on record as 14,848.
Same read-out and setting: in the case of `CCCN(CC[C@]1(O)CC[C@@H](NC(=O)c2ccc3ccccc3c2)CC1)[C@H]1CCc2nc(N)sc2C1` [Compound 12] it was 7,373.
Regarding `O=C(NCCCCN1CCN(c2cccc(Cl)c2Cl)CC1)c1ccc2c(c1)Cc1ccccc1-2` [Compound 6], the “Selectivity for D3 over D2” value in data set [4] is listed as at most 100 fold.
For `CCCN(CC[C@]1(O)C[C@H](NC(=O)c2ccc3ccccc3c2)C1)[C@H]1CCc2nc(N)sc2C1` [Compound 17], the “Effect on core body temperature” value in data set [6] (3.2 mg/kg) is recorded as “no significant effect”. In data set [6] (10 mg/kg), the “Effect on core body temperature” value is recorded as “significant but a modest effect” and the “Decrease in core body temperature” value is “approximately 0.75 °C”. Further, in data set [6], the “Dose at onset of modest D2 agonist activity” value is reported as 10 mg/kg. The molecule further yielded a solubility in data set [2] above 100 mg/mL. Besides, in data set [3], the “Dose producing peak levels of yawning” value is reported as 1.0 mg/kg and the “High doses at which D2 agonist effects may be observed” value was ~ 10.0 mg/kg. For the same molecule, the “Dose active at the D3 receptor (significant yawning activity)” value in data set [3] (lowest active dose) is given as 0.01 mg/kg. Further, the “Binding to human D1 receptor” value in data set [7] is recorded as “no detectable binding”.
Take `CCCN(CC[C@H]1CC[C@H](NC(=O)c2ccc3ccccc3c2)CC1)[C@H]1CCc2nc(N)sc2C1` [Compound 11]: the Aqueous solubility in data set [1] is above 50 mg/mL.
For the molecule `CCCN[C@H]1CCc2nc(N)sc2C1` [Compound 1, Pramipexole], the “Decrease in core body temperature” value in data set [6] (0.32 mg/kg) is “approximately 0.75 °C”. Also, the “Effect on core body temperature” value in data set [6] (doses of 0.32 and 1.0 mg/kg) is “significant decreases”. In data set [6], the “Dose at onset of modest D2 agonist activity” value was found to be 0.32 mg/kg. For the same molecule, in data set [3], the “High doses at which D2 agonist effects may be observed” value was ~ 1.0 mg/kg.
On to `OC1(c2ccc(Cl)cc2)CCN(Cc2c[nH]c3ccccc23)CC1` [L-741,626], for which the “Effect of antagonist on hypothermia induced by compound 17” value in data set [6] (10 mg/kg compound 17) is given as “did not have a significant effect”. The “Effect of antagonist on hypothermia induced by pramipexole” value in data set [6] (in vivo, 0.32 mg/kg) is listed as “significantly reversed”. Also, the “Effect of antagonist on yawning induced by lower agonist doses” value in data set [3] (pramipexole 0.1 mg/kg and 17 1.0 mg/kg) is listed as “failed to modulate”.
With `CCCN(CC[C@H]1C[C@@H](NC(=O)c2ccc3ccccc3c2)C1)[C@H]1CCc2nc(N)sc2C1` [Compound 15], in data set [5], the “Selectivity D1-like/D3” value is 8,822.
Turning to `Cc1nc(-c2cccc(C(=O)NC3CCC(CCN4CCc5ccc(S(C)(=O)=O)cc5CC4)CC3)c2)no1` (centres unmarked) [Compound 5], in data set [4], the “Selectivity for D3 over D2” value was at most 100 fold.
With `CCCN(CCC)C1CCc2ccc(O)cc2C1` (centres unmarked) [Compound 3, 7-hydroxy dipropylaminotetralin], the “Selectivity over the D2 receptor” value in data set [4] is given as below 100 fold.
In the case of `CCCN(CC[C@]1(O)CC[C@H](NC(=O)c2ccc3ccccc3c2)CC1)[C@H]1CCc2nc(N)sc2C1` [Compound 13], the “Selectivity D1-like/D3” value in data set [5] is reported as 15,115.
